Experimental data from US20230054194A1, “Methods of Treating Cancer” (ARIAGEN, INC., priority 2018, published 2023).

System: CT26.WT
Experiment: Subcutaneous syngeneic CT26.WT colon carcinoma mouse model, ARI-001 with anti-mCTLA-4 antibody (Example 153)
Type: in vivo
Experimental: In this example, the in vivo anti-tumor efficacy of ARI-001, an antibody against mouse CTLA-4 (mCTLA-4), and a combination of the two agents was evaluated using the subcutaneous syngeneic CT26.WT (aka CT-26) colon carcinoma mouse model.
CT26.WT cells were obtained from the ATCC and grown in RPMI 1640 medium supplemented with 10% FBS at 37° C. in a 5% CO2 atmosphere. Female Envigo BALB/c mice (BALB/cANNHsd) of 5-6 weeks old were implanted subcutaneously in the right axilla (high) on Day 0 with 5.0×10^5 cells/mouse in 200 μl using a 27-gauge needle and syringe.
ARI-001 powder was dissolved in 100% DMSO to obtain a 106.67 mg/ml dosing formulation with a pH of 7.6. The dosing solution was stored at room temperature and protected from light. The anti-mCTLA-4 9D9 was obtained from BioXcell.
All mice were sorted into study groups based on caliper estimation of tumor burden. Each study group had ten mice. The mice were distributed to ensure that the mean tumor burden for all groups was within 10% of the overall mean tumor burden for the study population. Treatment began on Day 7 at an overall mean tumor burden of 89 mm^3 (range of group means, 87-91 mm^3). All mice were dosed according to individual body weight on the day of treatment (0.2 mL/20 g for anti-mCTLA-4 and vehicle (PBS), 30 μL/20 g for ARI-001 and vehicle (DMSO)). All agents were given to the mice intraperitoneally.
Tumor measurements were recorded three times weekly. Tumor burden (mm^3) was estimated from caliper measurements by the formula for the volume of a prolate ellipsoid assuming unit density as:
Tumor burden(mm^3)=(L×W^2)/2,
The primary endpoints used to evaluate efficacy at the group level were: tumor growth delay, increased time to progression (% ITP), median ΔT/ΔC, complete and partial tumor response, and the number of tumor-free survivors at the end of the study. Tumor growth delay for this experiment was evaluated at 750 mm^3. Time to progression study for this experiment was evaluated at 2,000 mm^3. This is the IACUC required tumor burden limit, and the time to euthanasia can be thought of as a surrogate for lifespan.
In this experiment, median ΔT/ΔC was evaluated when the median control tumor burden reached 1,000 mm^3 (Day 17). A mouse was considered a putative responder if it met at least one of the following criteria: complete regression of the tumor or being at least two standard deviations larger than the median time to progression of the control group. The following are the definitions of the efficacy parameters mentioned above: ΔC and ΔT are individual mouse endpoints that are calculated for each mouse as follows:
Median ΔT/ΔC is a group endpoint. It is calculated for each day of treatment as:
The results are presented as %. When the median ΔT/ΔC is negative (the median treated tumor burden is regressing), the median ΔT/ΔC is not reported and the Median % Regression is reported instead.
Time to Evaluation Size (TES)—TES is an individual mouse endpoint and it is expressed in days from tumor implant. It is the time it takes the tumor burden to reach a specified value, and it can be calculated from any method of evaluating tumor burden (caliper measurements, BLI, anatomical imaging, etc.). It is calculated by log-linear interpolation between the two closest data points that bracket the chosen tumor burden.
Time to Progression (TP)—Time to progression is a surrogate for lifespan, time on study, or lifespan. It is used for studies that involve IACUC mandated euthanasia of animals for excessive tumor burdens (even if the animals otherwise appear normal). The mandated tumor burden limit is tumor model dependent. TP data is analyzed by Kaplan Meier methods just as traditional life span data. The Time to Progression for an individual animal is the number of days between initiation of treatment and the death or required euthanasia of that animal. […]

COC(=O)c1csc(C(=O)c2c[nH]c3ccccc23)n1 [ARI-001]
Incidence of putative responders (CT26.WT, ARI-001 160 mg/kg/inj., 9D9 10 mg/kg/inj.): 70%
Tumor Growth Delay (CT26.WT, ARI-001 160 mg/kg/inj., 9D9 10 mg/kg/inj., intraperitoneally): 2.9 days
Day 17 Median ΔT/ΔC (Day 17, ARI-001 160 mg/kg/inj., 9D9 10 mg/kg/inj., intraperitoneally): 44%
CR (complete response): 0%
MBW Change (mean body weight change during treatment, ARI-001 160 mg/kg/inj., 9D9 10 mg/kg/inj., intraperitoneally): −8.3%
Increase in MTP (median time to progression, 2,000 mm^3, relative to Group 1): 40%
